Values after ≈ are worked out from the molar mass of the structure shown. “Also recorded” adds a separate entry of the source. Like-named read-outs stand apart in the source and are kept apart here.
Experiments:
rat intestinal maltase [1] = conditions: read-out: IC50 against maltase (converted), cited from earlier work
rat intestinal sucrase [2] = molecular target: T1, rat intestinal sucrase (Rattus norvegicus, UniProt P23739); test: In vitro α-glucosidase inhibition assay, rat intestinal sucrase; assay type: biochemical
T1 construct: rat small intestinal brush border membrane vesicles were first prepared; from tissue; host or cells: rat small intestine, brush border membrane vesicles
Protocol: (§1) The testing method previously described was modified and used. Thus, rat small intestinal brush border membrane vesicles were first prepared, and its suspension in 0.1 M maleate buffer (pH = 6.0) was used as small intestinal α-glucosidases of maltase and sucrase. A test compound was dissolved in dimethylsulfoxide (DMSO), and the resulting solution was diluted with 0.1 M maleate buffer to prepare the test compound solution (concentration of DMSO: 10%). The substrate solution in maleate buffer ([…], 50 μL), a test compound solution (25 μL), and the enzyme solution (25 μL) were mixed and incubated at 37 °C for 30 min. After incubation, the solution was immediately heated by boiling water for 2 min to stop the reaction, and the solution was mixed with water (150 μL). Glucose concentration was determined by the glucose-oxidase method. […] The IC50 value was determined graphically by a plot of percent inhibition versus log of the test compound.

rat intestinal maltase [3] = test: In vitro α-glucosidase inhibition assay, rat intestinal maltase; assay type: biochemical; conditions: for IC50: rat small intestinal brush border membrane vesicles, maltose substrate, mean ± SD (n = 3), read-out: IC50 against maltase
Protocol: as §1

rat intestinal sucrase [4] = molecular target: T1, rat intestinal sucrase; conditions: literature value; read-out: IC50 against sucrase (converted); cited from earlier work
rat intestinal sucrase [5] = molecular target: T1, rat intestinal sucrase; test: Inhibition-kinetic study (Lineweaver–Burk), sucrase; assay type: biochemical; conditions: for type of inhibition, sucrase: Lineweaver–Burk plots
Protocol: (§2) In order to explore the inhibitory mechanism of the α-glucosidase by this family of compounds, enzyme kinetic assays were conducted on 20a, 20c, and 10, followed by a detailed kinetic analysis using the Lineweaver–Burk plots. (Figure 3) The small intestinal brush border membrane vesicles were incubated with varying concentrations of maltose (3.27 mg/mL) for maltase assays and sucrose (52.37 mg/mL) for sucrase assays.
(§3) For kinetic analyses of maltase and sucrase by compounds (20a, 20c, and 10), the enzyme and test samples (1.0 mg/mL for maltase and 0.2 mg/mL for sucrase) were incubated with increasing concentrations of maltose (2.5, 5, 10, 20, 50, 100 μM) and sucrose (5, 10, 20, 50, 100, 1000 μM) at 37 °C for 30 min. The tube was immediately immersed in boiling water for 2 min to stop the reaction, then cooled with water. The glucose concentration was determined by the glucose-oxidase method. […] The Lineweaver–Burk equation follows as: 1/V=Km/Vmax×[…]
(§4) Ki values for each inhibitor were determined by the equation: Ki=[I]×Km/[[…]−Km]

LO2 = test: Cytotoxicity against normal cell line LO2; assay type: cell-based; conditions: Homo sapiens, L02
Protocol: (§5) The cytotoxicity of selected sulfonium salts (20a, 20c, and 10) was then evaluated via the 3-[4,5-dimethylthiazol-2-yl]-2,5-diphenyl-tetrazolium bromide (MTT) assay against different cell lines.
(§6) Compounds HELF LO2 Primary Hepatocyte
(§7) (1 picture or pasted object on this page, not shown here)

Primary Hepatocyte = test: Cytotoxicity against Primary Hepatocyte; assay type: cell-based
Protocol: as §5, §6, §7

[6] = test system: HELF, a human embryonic lung fibroblast cell line; test: MTT cytotoxicity assay on HELF cells; assay type: cell-based; conditions: for IC50: Homo sapiens, HELF, read-out: IC50 against normal cell line HELF; for cytotoxicity (MTT assay): different cell lines
Protocol: as §5
Briefly, the HELF-adherent cells were cultured in a 96-well plate overnight in a CO2 environment at 37 °C. Supernatant was removed, and 100 μL serially diluted compounds with complete medium DMEM supplemented with 10% (v/v) fetal bovine serum, penicillin (100 units/mL), and streptomycin (100 μg/mL) were added to each well. After the incubation, the culture medium was aspirated carefully, and 50 μL of MTT solution (2mg/mL PBS) was added to each well and further incubated for 4h. After this, MTT solution was aspirated, and cells were PBS-washed once, and 100 μL of DMSO was added to dissolve the blue insoluble MTT formazan produced by the action of mitochondrial dehydrogenase. The plate was agitated at room temperature for 15 min and then read at 570 nm by using a microplate reader. The percentage of viable cells was calculated as the relative ratio of optical densities.

rat intestinal maltase [7] = test: Inhibition-kinetic study (Lineweaver–Burk), maltase; assay type: biochemical; conditions: for type of inhibition, maltase: Lineweaver–Burk plots; for Ki Maltase (Km = 3.0 mM): small intestinal α-glucosidase, Lineweaver–Burk
Protocol: as §2, §3, §4

sucrose-loaded mice = test: Sucrose loading test (hypoglycemic effect); assay type: in vivo, ICR mice; conditions: sucrose loading […] p.o.
Protocol: Research has shown a strong association between the 2 h postprandial blood glucose level and the risk of cardiovascular events, diabetic microvascular complications such as retinopathy, and the progression of macrovascular diseases. […] Considering this underlying pathological process, α-glucosidase inhibitors, which efficiently regulate postprandial glucose fluctuations, hold significant therapeutic promise for alleviating diabetes-related complications. […] Subsequently, doses were reduced to 1.0 mg/kg.
(§8) The animal experimental protocols in this study were approved by the Experimental Animal Center of Shanghai Institute of Materia Medica (Shanghai, China). Male ICR (Institute of Cancer Research) mice (29−33 g) after an overnight fast were used for acute maltose and sucrose loading tests. In the maltose loading test, maltose (2.0 mpk of body weight) and the inhibitors and voglibose were dissolved in distillation−distillation water and administered to the mice via a stomach tube. A control group was loaded with distillation−distillation water. In the sucrose loading test, sucrose (2.5 g/kg of body weight) and the inhibitor miglitol were dissolved in distillation−distillation water and administered to the mice via a stomach tube. A control group was loaded with distillation−distillation water. Blood samples for glucose measurements were obtained from the tail vein at 0, 15, 30, 60, and 120 min after maltose and sucrose loading. The blood glucose levels were measured by a portable kit, StatStrip Xpress (Nova Biomedical Co., Ltd., Waltham, MA, USA). The AUC over was calculated by the trapezoidal method.

maltose-loaded mice = test: Maltose loading test (hypoglycemic effect); assay type: in vivo, ICR mice; conditions: maltose loading 2.0 g/kg, 1.0 mpk
Protocol: A maltose loading test on compounds 10, 20c, neoponkoranol, and positive control (voglibose) was conducted to further evaluate their in vivo hypoglycemic effects against maltase.
as §8, with “In the maltose loading test, maltose (2.0 mpk of body weight) and the inhibitors and voglibose were dissolved in distillation−distillation water and administered to the mice via a stomach tube.” left out

[8] = rat small intestinal brush border membrane vesicles, sucrose substrate, mean ± SD (n = 3), read-out: IC50 against sucrase

T1 sequence (P23739 whole entry): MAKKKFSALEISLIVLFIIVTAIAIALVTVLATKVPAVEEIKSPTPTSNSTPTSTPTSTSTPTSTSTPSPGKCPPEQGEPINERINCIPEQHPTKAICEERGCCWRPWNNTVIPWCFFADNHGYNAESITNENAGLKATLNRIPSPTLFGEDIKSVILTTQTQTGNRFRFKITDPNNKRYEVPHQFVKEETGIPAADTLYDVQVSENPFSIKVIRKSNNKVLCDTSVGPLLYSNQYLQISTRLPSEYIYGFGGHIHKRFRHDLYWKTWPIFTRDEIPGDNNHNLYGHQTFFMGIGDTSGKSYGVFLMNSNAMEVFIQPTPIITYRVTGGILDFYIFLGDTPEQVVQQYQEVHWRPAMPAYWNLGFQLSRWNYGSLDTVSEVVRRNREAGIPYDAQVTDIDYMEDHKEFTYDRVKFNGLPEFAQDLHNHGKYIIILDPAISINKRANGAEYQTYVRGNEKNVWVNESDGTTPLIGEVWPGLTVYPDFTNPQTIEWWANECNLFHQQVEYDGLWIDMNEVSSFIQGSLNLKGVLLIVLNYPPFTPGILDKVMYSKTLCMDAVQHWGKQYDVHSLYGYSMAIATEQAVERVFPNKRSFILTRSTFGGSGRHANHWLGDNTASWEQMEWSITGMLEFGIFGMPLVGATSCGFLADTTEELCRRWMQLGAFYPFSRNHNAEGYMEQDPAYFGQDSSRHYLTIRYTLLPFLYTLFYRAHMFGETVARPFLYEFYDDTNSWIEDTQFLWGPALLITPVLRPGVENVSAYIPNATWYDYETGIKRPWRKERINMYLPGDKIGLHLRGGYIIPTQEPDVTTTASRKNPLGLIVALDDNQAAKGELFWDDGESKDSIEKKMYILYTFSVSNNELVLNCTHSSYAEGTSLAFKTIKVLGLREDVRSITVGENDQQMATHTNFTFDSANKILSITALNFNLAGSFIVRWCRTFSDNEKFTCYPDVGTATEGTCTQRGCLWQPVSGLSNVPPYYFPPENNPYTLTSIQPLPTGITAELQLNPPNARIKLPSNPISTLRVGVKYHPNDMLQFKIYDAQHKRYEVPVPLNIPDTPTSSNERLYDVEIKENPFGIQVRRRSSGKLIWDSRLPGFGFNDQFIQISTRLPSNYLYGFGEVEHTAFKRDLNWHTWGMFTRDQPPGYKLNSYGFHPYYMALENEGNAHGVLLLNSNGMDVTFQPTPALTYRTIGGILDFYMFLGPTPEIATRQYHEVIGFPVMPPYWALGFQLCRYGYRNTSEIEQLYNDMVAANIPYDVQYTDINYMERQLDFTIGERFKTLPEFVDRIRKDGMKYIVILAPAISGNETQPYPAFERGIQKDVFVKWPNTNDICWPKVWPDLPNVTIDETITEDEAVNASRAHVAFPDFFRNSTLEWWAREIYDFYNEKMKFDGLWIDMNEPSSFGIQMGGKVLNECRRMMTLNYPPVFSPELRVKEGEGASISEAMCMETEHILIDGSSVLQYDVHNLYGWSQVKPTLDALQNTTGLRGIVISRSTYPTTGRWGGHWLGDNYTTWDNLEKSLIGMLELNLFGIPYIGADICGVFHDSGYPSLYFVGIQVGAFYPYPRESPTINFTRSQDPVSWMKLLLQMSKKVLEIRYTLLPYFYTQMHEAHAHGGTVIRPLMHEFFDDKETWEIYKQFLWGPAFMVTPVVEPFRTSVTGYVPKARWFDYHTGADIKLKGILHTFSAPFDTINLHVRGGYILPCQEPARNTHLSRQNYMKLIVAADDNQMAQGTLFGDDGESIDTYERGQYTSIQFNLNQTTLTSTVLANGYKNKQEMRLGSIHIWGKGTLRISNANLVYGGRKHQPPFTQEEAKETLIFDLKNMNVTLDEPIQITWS

SMILES | IC50 (rat intestinal sucrase [2]; [8]) | IC50 (rat intestinal maltase [3]) | Ki (rat intestinal sucrase [5]) | type of inhibition, sucrase (rat intestinal sucrase [5]) | IC50 (LO2) | IC50 (Primary Hepatocyte) | IC50 [6] | cytotoxicity (MTT assay) [6] | IC50 (rat intestinal sucrase [2]) | type of inhibition, maltase (rat intestinal maltase [7]) | Ki Maltase (Km = 3.0 mM) (rat intestinal maltase [7]) | Declined Rate of Blood Glucose Levels, 15 min (sucrose-loaded mice; 1.0 mpk) | Declined Rate of Blood Glucose Levels, 30 min (sucrose-loaded mice; 1.0 mpk) | Declined Rate of Blood Glucose Levels, 60 min (sucrose-loaded mice; 1.0 mpk) | Declined Rate of AUC (sucrose-loaded mice; 1.0 mpk) | Declined Rate of Blood Glucose Levels, 15 min (maltose-loaded mice) | Declined Rate of Blood Glucose Levels, 30 min (maltose-loaded mice) | Declined Rate of Blood Glucose Levels, 60 min (maltose-loaded mice; 1 mg/kg) | Declined Rate of AUC (maltose-loaded mice; 1 mg/kg) | IC50 (rat intestinal maltase [1]; literature value ^[a]) | also measured
OCC1C(O)C(O)C[S+]1CC(O)C1OC(c2ccccc2F)OCC1O [19n, 1,4-Dideoxy-1,4-{(R)-[5-deoxy-1,3-O-(o-fluorophenylmethylene)-D-arabinitol-5-yl]episulfoniumylidene}-D-arabinitol chloride] | 550 nM | 420 nM | – | – | – | – | – | – | – | – | – | – | – | – | – | – | – | – | – | – | IC50 (rat intestinal maltase [1]; literature value): 400 nM; IC50 (rat intestinal sucrase [4]): 840 nM
OC[C@@H]1[C@@H](O)[C@H](O)C[Se@+]1C[C@@H](O)[C@H]1OC(c2cccc(Cl)c2Cl)OC[C@H]1O.[Cl-] (stereo partly drawn) [20a, (1S,2R,3S,4S)-1-((2S)-2-((4S,5R)-2-(2,3-Dichlorophenyl)-5-hydroxy-1,3-dioxan-4-yl)-2-hydroxyethyl)-3,4-dihydroxy-2-(hydroxymethyl)tetrahydro-1H-selenophen-1-ium chloride] | – | 330 ± 150 nM | 934 nM | fully competitive | > 500000 nM | > 500000 nM | > 500000 nM | non-toxic | 190 ± 20 nM | fully competitive | 0.94 µg/mL | – | – | – | – | – | – | – | – | – | –
OC[C@@H]1[C@@H](O)[C@H](O)C[Se@+]1C[C@@H](O)[C@H]1OC(c2cc(Cl)ccc2Cl)OC[C@H]1O.[Cl-] (stereo partly drawn) [20c, (1S,2R,3S,4S)-1-((2S)-2-((4S,5R)-2-(2,5-Dichlorophenyl)-5-hydroxy-1,3-dioxan-4-yl)-2-hydroxyethyl)-3,4-dihydroxy-2-(hydroxymethyl)tetrahydro-1H-selenophen-1-ium chloride] | – | 140 ± 50 nM | 381 nM | fully competitive | > 500000 nM | > 500000 nM | > 500000 nM | low toxicity; also recorded: non-toxic | 50 ± 20 nM | fully competitive | 0.67 µg/mL | 40.0% | 40.3% | 38.2% | 34.00% | 45.8% | 47.4% | 43.5% | 40.2% | – | Declined Rate of Blood Glucose Levels, 15 min (sucrose-loaded mice; 10.0 mpk, 10 mg/kg): 48.6%; Declined Rate of Blood Glucose Levels, 30 min (sucrose-loaded mice; 10.0 mpk, 10 mg/kg): 52.8%; Declined Rate of Blood Glucose Levels, 60 min (sucrose-loaded mice; 10.0 mpk, 10 mg/kg): 48.1%; Declined Rate of AUC (sucrose-loaded mice; 10.0 mpk, 10 mg/kg): 46.4%; fold greater potency than acarbose, sucrase (rat intestinal sucrase [2]; IC50 ratio vs acarbose): 44 fold; fold greater potency than acarbose, maltase (rat intestinal maltase [3]; IC50 ratio vs acarbose): 25 fold
C[C@H]1O[C@H](O[C@H]2[C@H](O)[C@@H](O)[C@@H](O[C@H]3[C@H](O)[C@@H](O)C(O)O[C@@H]3CO)O[C@@H]2CO)[C@H](O)[C@@H](O)[C@@H]1N[C@H]1C=C(CO)[C@@H](O)[C@H](O)[C@H]1O (stereo partly drawn) [acarbose] | – | 3500 nM | – | – | – | – | – | – | – | – | 1.98 µg/mL (≈ 3.07 µM) | – | – | – | – | – | – | – | – | 3200 nM | Declined Rate of Blood Glucose Levels, 15 min (sucrose-loaded mice; 20.0 mpk, 20 mg/kg): 45.7%; Declined Rate of Blood Glucose Levels, 30 min (sucrose-loaded mice; 20.0 mpk, 20 mg/kg): 48.4%; Declined Rate of Blood Glucose Levels, 60 min (sucrose-loaded mice; 20.0 mpk): 44.3%; Declined Rate of AUC (sucrose-loaded mice; 20.0 mpk, 20 mg/kg): 40.5%
O=[N+]([O-])c1ccccc1C1OC[C@@H](O)[C@@H]([C@H](O)C[S@@+]2C[C@@H](O)[C@H](O)[C@H]2CO)O1 (stereo partly drawn) [compound 10] | – | – | – | fully competitive | – | – | – | non-toxic | – | fully competitive | 0.42 µg/mL | 41.8% | 43.00% | 39.1% | 35.2% | – | – | 47.2% | – | – | Ki (rat intestinal sucrase [5]; small intestinal α-glucosidase, Lineweaver–Burk, read-out: Ki Sucrase (Km = 23.56 mM) (converted)): 693 nM; Declined Rate of Blood Glucose Levels, 15 min (sucrose-loaded mice; 10.0 mpk): 48.0%; Declined Rate of Blood Glucose Levels, 30 min (sucrose-loaded mice; 10.0 mpk): 54.6%; Declined Rate of Blood Glucose Levels, 60 min (sucrose-loaded mice; 10.0 mpk): 52.5%; Declined Rate of AUC (sucrose-loaded mice; 10.0 mpk): 46.6%; Declined Rate of Blood Glucose Levels, 15 min (maltose-loaded mice; 1 mg/kg): 52.8%; Declined Rate of Blood Glucose Levels, 30 min (maltose-loaded mice; 1 mg/kg): 55.0%; Declined Rate of AUC (maltose-loaded mice): 43.5%
OCC(CO)N[C@H]1C[C@](O)(CO)[C@@H](O)[C@H](O)[C@H]1O [voglibose] | 350 nM | 1450 nM | – | – | – | – | – | – | – | – | – | – | – | – | – | 49.2% | 53.7% | 40.1% | 39.8% | 1500 nM | –

From paper PMC12250965, “Design and Synthesis of Sulfonium and Selenonium Derivatives Bearing 3′,5′-O-Benzylidene Acetal Side Chain Structure as Potent α-Glucosidase Inhibitors” (Molecules, 2025)
